Numbers after ± are expanded uncertainties.

The data set can be described thus: activity coefficient (dimensionless); of the first substance listed, at infinite dilution; xn = mol fraction of the nth substance listed. Particulars: 101 kPa, Liquid, Chromatography, x1 = 0.

As to `c1ccccc1` [benzene] + CCCCCCCCCCn1cc[n+](C)c1.F[B-](F)(F)F, the activity coefficient came out at 1.15 ± 0.07 (303.15 K); 1.14 ± 0.07 (313.15 K); 1.11 ± 0.07 (323.15 K); 1.1 ± 0.1 (333.15 K); 1.08 ± 0.06 (343.15 K); 1.07 ± 0.06 (353.15 K). Also, the activity coefficient (363.15 K) came to 1.06 ± 0.06.

Take `CCc1ccccc1` [ethylbenzene] + CCCCCCCCCCn1cc[n+](C)c1.F[B-](F)(F)F: the activity coefficient is, setting by setting: (313.15 K) 2.02 ± 0.13; (323.15 K) 2.01 ± 0.13; (333.15 K) 1.99 ± 0.13; (343.15 K) 1.98 ± 0.13; (353.15 K) 1.97 ± 0.13; (363.15 K) 1.96 ± 0.13.

As for `CCCCCC` [hexane] + CCCCCCCCCCn1cc[n+](C)c1.F[B-](F)(F)F, the activity coefficient worked out at 7.36 ± 0.48 (303.15 K); 7.16 ± 0.46 (313.15 K); 7.03 ± 0.45 (323.15 K); 6.94 ± 0.45 (333.15 K); 6.86 ± 0.44 (343.15 K); 6.81 ± 0.44 (353.15 K). The activity coefficient (363.15 K) stood at 6.68 ± 0.43.

With `C=Cc1ccccc1` [styrene] + CCCCCCCCCCn1cc[n+](C)c1.F[B-](F)(F)F, the activity coefficient is, setting by setting: (313.15 K) 1.25 ± 0.08; (323.15 K) 1.22 ± 0.07; (333.15 K) 1.2 ± 0.1; (343.15 K) 1.18 ± 0.07; (353.15 K) 1.16 ± 0.07; (363.15 K) 1.14 ± 0.07.

Take `CCCCCCCCC` [nonane] + CCCCCCCCCCn1cc[n+](C)c1.F[B-](F)(F)F: the activity coefficient reads like this: (303.15 K) 10.7 ± 0.69; (313.15 K) 10.7 ± 0.69; (323.15 K) 10.7 ± 0.69; (333.15 K) 10.7 ± 0.69; (343.15 K) 10.7 ± 0.69; (353.15 K) 10.7 ± 0.69. The activity coefficient (363.15 K) worked out at 10.6 ± 0.69.

For `Cc1ccccc1` [toluene] + CCCCCCCCCCn1cc[n+](C)c1.F[B-](F)(F)F, the activity coefficient runs as follows: (303.15 K) 1.52 ± 0.09; (313.15 K) 1.49 ± 0.09; (323.15 K) 1.47 ± 0.09; (333.15 K) 1.43 ± 0.09; (343.15 K) 1.41 ± 0.09; (353.15 K) 1.4 ± 0.1. For the same molecule, the activity coefficient (363.15 K) turned out to be 1.35 ± 0.08.

For the molecule `CC(C)CC(C)(C)C` [2,2,4-trimethylpentane] + CCCCCCCCCCn1cc[n+](C)c1.F[B-](F)(F)F, the activity coefficient runs as follows: (303.15 K) 9.13 ± 0.59; (313.15 K) 9.11 ± 0.59; (323.15 K) 9.1 ± 0.6; (333.15 K) 9.08 ± 0.59; (343.15 K) 9.07 ± 0.59; (353.15 K) 9.07 ± 0.59. The activity coefficient (363.15 K) was 9.06 ± 0.59.

Take `Cc1ccc(C)cc1` [1,4-dimethylbenzene] + CCCCCCCCCCn1cc[n+](C)c1.F[B-](F)(F)F: the activity coefficient reads like this: (303.15 K) 1.99 ± 0.13; (313.15 K) 1.96 ± 0.13; (323.15 K) 1.93 ± 0.12; (333.15 K) 1.92 ± 0.12; (343.15 K) 1.91 ± 0.12; (353.15 K) 1.88 ± 0.12. For the same molecule, the activity coefficient (363.15 K) was found to be 1.86 ± 0.12.

Regarding `C1=CCCCC1` [cyclohexene] + CCCCCCCCCCn1cc[n+](C)c1.F[B-](F)(F)F, the activity coefficient (303.15 K) was found to be 3.03 ± 0.2; the activity coefficient (313.15 K) was determined as 3.01 ± 0.19; the activity coefficient (323.15 K) came to 2.99 ± 0.19; the activity coefficient (333.15 K) worked out at 2.97 ± 0.19; the activity coefficient (343.15 K) worked out at 2.96 ± 0.19; the activity coefficient (353.15 K) came out at 2.96 ± 0.19. The activity coefficient (363.15 K) came out at 2.96 ± 0.19.

Take `CC1CCCCC1` [methylcyclohexane] + CCCCCCCCCCn1cc[n+](C)c1.F[B-](F)(F)F: the activity coefficient worked out at 5.19 ± 0.34 (303.15 K); 5.23 ± 0.34 (313.15 K); 5.24 ± 0.34 (323.15 K); 5.28 ± 0.34 (333.15 K); 5.32 ± 0.34 (343.15 K); 5.36 ± 0.35 (353.15 K). For the same molecule, where the note is “363.15 K”, the activity coefficient stood at 5.39 ± 0.35.

For the molecule `C1CCCCC1` [cyclohexane] + CCCCCCCCCCn1cc[n+](C)c1.F[B-](F)(F)F, the activity coefficient by setting is: (303.15 K) 4.42 ± 0.29; (313.15 K) 4.43 ± 0.29; (323.15 K) 4.43 ± 0.29; (333.15 K) 4.47 ± 0.29; (343.15 K) 4.5 ± 0.3; (353.15 K) 4.56 ± 0.29. In addition, the activity coefficient (363.15 K) was 4.69 ± 0.3.

As to `Cc1ccccc1C` [1,2-dimethylbenzene] + CCCCCCCCCCn1cc[n+](C)c1.F[B-](F)(F)F, the activity coefficient runs as follows: (303.15 K) 1.79 ± 0.11; (313.15 K) 1.77 ± 0.11; (323.15 K) 1.75 ± 0.11; (333.15 K) 1.73 ± 0.11; (343.15 K) 1.72 ± 0.11; (353.15 K) 1.72 ± 0.11. For the same molecule, the activity coefficient (363.15 K) was 1.71 ± 0.11.

In the case of `CCCCC` [pentane] + CCCCCCCCCCn1cc[n+](C)c1.F[B-](F)(F)F, the activity coefficient (303.15 K) is 6.88 ± 0.45; the activity coefficient (313.15 K) is 6.72 ± 0.43; the activity coefficient (323.15 K) was 6.53 ± 0.42; the activity coefficient (333.15 K) is 6.29 ± 0.41; the activity coefficient (343.15 K) was 6.12 ± 0.4; the activity coefficient (353.15 K) was determined as 6.01 ± 0.39. Also, the activity coefficient (363.15 K) is 5.93 ± 0.38.

Turning to `CCCCCCCC` [octane] + CCCCCCCCCCn1cc[n+](C)c1.F[B-](F)(F)F, the activity coefficient by setting is: (303.15 K) 9.3 ± 0.6; (313.15 K) 9.26 ± 0.6; (323.15 K) 9.21 ± 0.6; (333.15 K) 9.2 ± 0.6; (343.15 K) 9.17 ± 0.59; (353.15 K) 9.16 ± 0.59. For the setting “363.15 K”, the activity coefficient came out at 9.13 ± 0.59.

In the case of `Cc1cccc(C)c1` [1,3-dimethylbenzene] + CCCCCCCCCCn1cc[n+](C)c1.F[B-](F)(F)F, the activity coefficient reads like this: (303.15 K) 2.03 ± 0.13; (313.15 K) 2.02 ± 0.13; (323.15 K) 1.97 ± 0.13; (333.15 K) 1.95 ± 0.13; (343.15 K) 1.94 ± 0.12; (353.15 K) 1.92 ± 0.12. For the same molecule, where the note is “363.15 K”, the activity coefficient came to 1.91 ± 0.12.

Consider `CCCCCCC` [heptane] + CCCCCCCCCCn1cc[n+](C)c1.F[B-](F)(F)F, for which the activity coefficient runs as follows: (303.15 K) 8.01 ± 0.52; (313.15 K) 7.97 ± 0.52; (323.15 K) 7.95 ± 0.51; (333.15 K) 7.93 ± 0.51; (343.15 K) 7.91 ± 0.51; (353.15 K) 7.89 ± 0.51. Moreover, the activity coefficient (363.15 K) worked out at 7.88 ± 0.51.

Source of the values: the NIST ThermoML archive (doi:10.1021/je100952p).
